Like-named read-outs stand apart in the source and are kept apart here.
Experiments:
Assay type in all cases: cell-based
Listeria = system: Listeria
[1] = system: stressed bacterial cells (Listeria); details: for effect on infection rate or enzymatic activity: antifungal agent added to base medium
Description: Media were screened for the ability to support high infection rate and high signal intensity following infection with phage encoding a luciferase marker. Bacterial cells were purposefully stressed by way of drying for 18 hours on a stainless steel table, followed by re-suspension in brain-heart infusion medium (BHI) for 30 minutes. The recovered cells were then infected with phage containing a luciferase marker for 6 hours followed by testing of the enzymatic activity using unpurified phage lysate and NanoLuc reagent.
BHI and TSB media were further titrated to assess whether there was an increase in RLU at different concentrations of base media.
Select components were added to the media in order to remedy known stressors to cells, and to reduce the possibility for other chemicals interfering with the test results. To this end, lithium chloride was added at defined concentrations to the selected 1×TSB base medium, followed by infecting the cells with a luciferase containing phage, and lastly by assaying the RLU detectable as a function of the percentage of lithium chloride added to the media. Lithium chloride was selected as an additive in order to overcome, prevent or limit growth of competing biologicals. […] (See FIG. 11).
Components selected to overcome cell starvation and oxidative stress, glucose and yeast extract, respectively, were titrated in 1×TSB, followed by infection of the bacteria with luciferase containing phage, and lastly by assaying the RLU detectable as a function of the percentage of either glucose or yeast extract.
Antifungal agents were also added to the base medium and tested in order to determine whether there is a decrease in RLU activity, either as a result of loss of enzyme activity or because of reduced infection ability. The anti-fungal agents tested included cycloheximide solution in DMSO.
The effect of divalent cations added to Formulation-1 was assessed. MgSO4 or CaCl2 was added to Formulation-1, followed by infection of bacteria with luciferase encoding phage, and assessment of resultant RLU.
The resultant formulation that incorporates all of the components of Formulation-1A, with the addition of HEPES, is herein referred to as Formulation-2 or as NIB-12.

1893 cell-type = assay: Sanitizer neutralization assay, phage infection step; details: added to NIB-14; 2 mM sodium metabisulfite or 0.05% sodium thiosulfate
Description: Following the 30 minute incubation period, the luciferase marker containing phage was added in BHI medium, and the samples were further allowed to incubate for an additional 3 hours at 30° C. The enzyme was then detected by the addition of the NanoGlo luciferin substrate and luminescence measurement. […] Another variant of this assay involved the direct incubation of the sterilization chemical with the NanoGlo luciferin substrate in the absence of either cells, phage or enzyme.

[2] = system: bacteria exposed to luciferase encoding phage; assay: Phage infection and enzyme activity across media formulations (RLU); details: comparison across media formulations and additives
Description: A systematic comparison of RLU values as a function of additive component was performed on various media formulations. (See FIG. 15). The effects of different additives on both enzymatic activity, as well as infection ability, was measured and compared by way of assessing RLU across the different conditions.

[3] = system: bacterial cells (Listeria); assay: RLU after phage infection in the presence of increasing quaternary ammonium salts; details: additive in Listeria Growth Broth
From the text: Bacterial cells were exposed to luciferase encoding phage in the following buffers, Listeria growth broth, Listeria growth broth with TWEEN®-80, or to Listeria growth broth with the addition of both TWEEN®-80 and lecithin. The RLU values are shown on the y-axis.
The addition of TWEEN®-80, either alone or in combination with lecithin, to the Formulation-2 (NIB-12) medium allowed for protection of the samples from interference by quaternary ammonium salts. (See FIG. 14). […] In this case, there was a sustained, detectable RLU in the presence of up to 62.5 ppm quaternary ammonium salts. The amount of resistance to quaternary ammonium salts was further increased through the addition of both lecithin and TWEEN®-80. With the addition of both reagents to Listeria Growth Broth, there was detectable RLU up to 125 ppm quaternary ammonium salts. Another preferred embodiment of the media contains 1.5% of TWEEN®-80 and 0.22% of lecithin.

[4] = component of aqueous solution (infection buffer)

Compound	Effect on Listeria Detection (Listeria; [4])	also measured
O=C([O-])CC(O)(CC(=O)[O-])C(=O)[O-].[Na+].[Na+].[Na+] [Sodium citrate]	negative	
O=S(=O)(O)CCN1CCN(CCO)CC1 [HEPES, pH 7.4, HEPES]	positive	ideal HEPES concentration for high RLU activity ([1]; titrated into Formulation-1A, 3 hour and 6 hour time points): 20 mM
CC(C)(O/N=C(\C(=O)N[C@@H]1C(=O)N2C(C(=O)[O-])=C(C[n+]3ccccc3)CS[C@H]12)c1csc(N)n1)C(=O)O [Ceftazidime, reference compound]	positive	
O=S([O-])S(=O)(=O)[O-].[Na+].[Na+] [Sodium metabisulfite]	positive	effect of oxygen scavenger on oxidizing effect of peroxide (1893 cell-type): reduced the oxidizing effect of peroxide
CO[C@@]1(NC(=O)C(C(=O)O)c2ccc(O)cc2)C(=O)N2C(C(=O)O)=C(CSc3nnnn3C)CO[C@@H]21 (stereo partly drawn) [Moxalactam, reference compound]	neutral	
O-octophosphorylcholine	negative	
O=C([O-])CC(=O)[O-].[Na+].[Na+] [Sodium malonate]	negative	
Polysorbate 20	negative	
O=C(O)CCC(=O)C(=O)O [Alpha-ketoglutarate]	negative	
O=S(=O)([O-])[O-].[Fe+2] [Ferrous sulphate]	negative	
Polysorbate 80	positive	infection ability (RLU) [2]: large impact in increasing infection ability; quaternary ammonium salts concentration up to which RLU is detectable [3]: up to 62.5 ppm
O=C([O-])CS.[Na+] [Sodium thioglycollate]	negative	
OCC(O)CO [Glycerol]	neutral	
[Cl-].[Li+] [Lithium chloride]	optimized	additive concentration giving highest RLU / selected on RLU levels ([1]; titrated in 1×TSB, 3 hour and 6 hour assay points): 0.25%
C[S+](C)[O-] [DMSO]		effect on infection rate or enzymatic activity [1]: Neither cycloheximide nor DMSO resulted in a decrease
O=S(=O)([O-])[O-].[Mg+2] [Magnesium sulphate]	positive	RLU activity on addition of divalent cation ([1]; added to Formulation-1, in comparison to CaCl2): marked increase; infection ability (RLU) [2]: large impact in increasing infection ability

Compound	Effect on Listeria Detection (Listeria; [4])	also measured
O=S([O-])([O-])=S.[Na+].[Na+] [Sodium thiosulfate]		Effect on Listeria Detection (Listeria): negative; effect of oxygen scavenger on oxidizing effect of peroxide (1893 cell-type): reduced the oxidizing effect of peroxide
Ferric ammonium citrate	neutral	
C[C@@H]1C[C@@H]([C@H](O)CC2CC(=O)NC(=O)C2)C(=O)[C@@H](C)C1 [Cycloheximide]	neutral	effect on infection rate or enzymatic activity [1]: Neither cycloheximide nor DMSO resulted in a decrease
CC(=O)C(=O)[O-].[Na+] [Sodium pyruvate]	positive	RLU activity on addition of pyruvate ([1]; HEPES titration experiment): further increased RLU activity; infection ability (RLU) [2]: large impact in increasing infection ability
OC[C@H]1O[C@@](CO)(O[C@H]2O[C@H](CO)[C@@H](O)[C@H](O)[C@H]2O)[C@@H](O)[C@@H]1O [Sucrose]	neutral	
Ferric citrate	neutral	
Triton X-100	negative	
[Ca+2].[Cl-].[Cl-] [Calcium chloride]		Effect on Listeria Detection (Listeria): neutral
C[N+](C)(C)CCOP(=O)(O)O.[Cl-] [Phosphocholine chloride]	negative	
Acriflavin	negative	
CCn1cc(C(=O)O)c(=O)c2ccc(C)nc21 [Nalidixic acid, reference compound]	positive	
O=S(=O)(O)CCCN1CCOCC1 [MOPS, pH 7.2, MOPS]	positive	
Cc1ncc(C[n+]2csc(CCO)c2C)c(N)n1 [Thiamine]	neutral	
N[C@@H](CCC(=O)[O-])C(=O)[O-].[Na+].[Na+] [Sodium glutamate]	neutral	
Ferric sulfate	neutral	

From patent publication US10039795B2, “Codon optimized recombinant phage and methods of using same” (priority 2014, dated 2018)
